# In patent publication US5187163A, “Anti-viral compounds, dosage forms and methods” (Baker Norton Pharmaceuticals, Inc., priority 1992, dated 1993):
# Where a name gives a salt, the structure may show the parent alone. Read-outs that look alike come from different tables or passages of the source.
# How the values were obtained:
# Type in all cases: cell-based
# HIV (TM) [1] = assay: 4 day HIV-induced syncytium inhibition assay in MT-2 cells; conditions: for EC100: Human immunodeficiency virus 1, MT2, 96 h, read-out: concentration for complete/full protection of MT-2 cells from the formation of syncytia; for protective effect against the development of HIV-induced syncytia: among the dimers, 4 day assay, in words
# Method: An isolate of HIV (TM) was obtained from the culture supernatant of normal peripheral blood mononuclear cells infected with virus isolated from a patient with AIDS. Supernatant from H9 cells infected with HIV (TM) was aliquoted at peak reverse transcriptase activity and kept frozen at -85° C. until use. HIV (TM) infectivity assays using sequential fivefold dilutions (performed in quadruplicate) determined the infectious virus titer (Reed-Muench method) to be 10^4.5 TC ID50 per ml.
# (§1) Target MT-2 cells (an HTLV-I immortalized CD4+lymphoblastoid cell line) were propagated in growth medium (D-MEM supplemented with 15% heat-inactivated fetal bovine serum, 2mM glutamine, and 1% penicillin-streptomycin).
# (§2) Target MT-2 cells were exposed to DEAE-dextran (25 ug/ml, Sigma) for 20 minutes, washed and infected with HIV (TM) (MOI=0.001) at 37° C. for 1 hour. MT-2 cells (3×10^5 per ml) were placed in growth medium and transferred to a 24-well plastic tray followed by the addition of drug. The cells were carried at 37° C. in humidified air containing 5% CO2 for 14 days. Every 3-4 days, the medium was changed and fresh drug added. At each change of medium, cells and supernatants were assayed for measures of HIV expression. Uninfected and infected MT-2 cells without exposure to drug were used as controls. All cultures were performed in triplicate on two sets of experiments.
# MT-2 cells were chosen because of their sensitivity to HIV infection with the formation of giant syncytia that are quantifiable. The cytopathic effect of HIV could be monitored as a function of the input virus inoculum. When MT-2 cells were monitored in a 14 day assay, a MOI of 0.001 gave rise to the formation of syncytia after 4 days (>400 per well) and peak reverse transcriptase levels by day 8.
# To investigate the inhibitory effects of the drugs on HIV-induced syncytia formation, the nucleoside dimers were compared to their monomers and their combinations at multiple concentrations in a 4 day syncytium inhibition assay.
# MT-2 cells = assay: Cytotoxicity (cell viability, trypan blue exclusion) in uninfected MT-2 cells; conditions: uninfected MT-2 cells, in words
# Method: as §1
# (§3) MT-2 cells (2×10^5 cells per ml) were exposed to multiple drug concentrations (performed in triplicate). The medium was changed every 3-4 days, followed by the addition of fresh drug. Cell viability was determined by the trypan blue exclusion method and compared to controls without drug.
# (§4) The comparative HIV inhibitory effects of nucleosides and the novel nucleoside dimers are shown on Table 1. The 50% inhibitory dose (ID50) and 50% effective dose (ED50) of each compound were calculated using linear regression analysis from the results of a 14 day assay that monitored cell viability and the expression of HIV antigen by cellular fluorescence.
# (§5) The growth inhibitory effects of the compounds on MT-2 cells that were not exposed to the virus were compared. According to their ID50, the compounds could be classified into three major groups. […] When the cytotoxic effects of the compounds were tested against the human cell lines H9 and U937, similar toxicity profiles were seen.
# (§6) from two sets of experiments. Linear regression analysis was used to
# (§7) determine the ID50 and ED50. ID50, drug concentration
# (§8) required to reduce the number of uninfected MT2 cells by 50% on day 14.
# [2] = as above; conditions: human; day 14, uninfected MT-2 cells; mean of triplicate cultures from two sets of experiments; linear regression; read-out: ID50 (drug concentration required to reduce the number of uninfected MT2 cells by 50%)
# Method: as §1, §3, §4, §5, §6, §7, §8
# HIV (TM) [3] = assay: HIV infectivity assay in MT-2 cells (HIV antigen expression by immunofluorescence, 14 days); conditions: for EC50: read-out: ED50 (drug concentration achieving 50% inhibition of HIV expression assessed by immunofluorescence); for CTI, cytotherapeutic index (ID50/ED50): ID50/ED50, day 14, MT-2 cells; for anti-HIV activity profile according to ED50 / cytotherapeutic index, ranking: in words
# Method: An isolate of HIV (TM) was obtained from the culture supernatant of normal peripheral blood mononuclear cells infected with virus isolated from a patient with AIDS. Supernatant from H9 cells infected with HIV (TM) was aliquoted at peak reverse transcriptase activity and kept frozen at -85° C. until use.
# as §1, §2
# *The results are expressed as the arithmetic mean of triplicate cultures
# as §6
# ED50, drug concentration achieving 50% inhibition of HIV expression
# assessed by immunofluorescence on day 14.
# [4] = tested on: Reverse transcriptase (RT); assay: Inhibition of reverse transcriptase activity in culture supernatant of HIV-infected H9 cells; conditions: for Reverse Transcriptase activity in culture supernatant: H9 cells, MOI = 1.0
# Method: *Target cells = H9 cells. MOI = 1.0. Media changes with the addition of
# fresh drug were performed at 3-4 day intervals. Results are expressed as
# CPMReverse Transcriptase activity per ml in culture supernatant. CPM
# >5,000 signifies abnormal elevations in Reverse Transcriptase activity.
# The results represent the mean of duplicate studies in one experiment.
# [5] = Human immunodeficiency virus 1, MT2, 336 h
# [6] = 1 Ug/ml, day 7, control (no drug) 11,000
# [7] = 1 Ug/ml, day 11, control (no drug) 38,000
# [8] = 1 Ug/ml, day 14, control (no drug) 34,000
# [9] = 5 Ug/ml, day 7, control (no drug) 11,000
# [10] = 5 Ug/ml, day 11, control (no drug) 38,000
# [11] = 5 Ug/ml, day 14, control (no drug) 34,000
SMILES,EC100 (HIV (TM) [1]) [µM],protective effect against the development of HIV-induced syncytia (HIV (TM) [1]),toxicity group according to ID50 (MT-2 cells),CC50 at 336 h [2] [µM],EC50 (HIV (TM) [3]; [5]) [µM],"CTI, cytotherapeutic index (ID50/ED50) (HIV (TM) [3]; 20160 min)",anti-HIV activity profile according to ED50 (HIV (TM) [3]),"cytotherapeutic index, ranking (HIV (TM) [3])","Reverse Transcriptase activity in culture supernatant [4, 6]","Reverse Transcriptase activity in culture supernatant [4, 7]","Reverse Transcriptase activity in culture supernatant [4, 8]","Reverse Transcriptase activity in culture supernatant [4, 9]","Reverse Transcriptase activity in culture supernatant [4, 10]","Reverse Transcriptase activity in culture supernatant [4, 11]",further results
"Cc1cn([C@H]2C[C@H](N=[N+]=[N-])[C@@H](COP(=O)(O)OC[C@@H]3CC[C@H](n4cnc5c(N)ncnc54)O3)O2)c(=O)[nH]c1=O [AZT-P-ddA, azido-beta-thymidine-2',3'-dideoxyadenosine phosphate ammonium salt]",0.5,strongest protective effect,moderate toxicity,200,0.8,250,most potent,highest,"1,500 CPM per ml","12,000 CPM per ml","26,500 CPM per ml",500 CPM per ml,500 CPM per ml,500 CPM per ml,activity in RT assay compared with AZT ([4]; in words): comparable to that of AZT
"Nc1ncnc2c1ncn2[C@H]1CC[C@@H](CO)O1 [ddA, 2',3'-dideoxyadenosine, reference compound]",10,,least toxicity,400,7,57,weaker activities,,,,,,,,"Reverse Transcriptase activity in culture supernatant ([4]; 1 uM, day 7, control (no drug) 11,000): 5,500 CPM per ml; Reverse Transcriptase activity in culture supernatant ([4]; 1 uM, day 11, control (no drug) 38,000): 45,000 CPM per ml; Reverse Transcriptase activity in culture supernatant ([4]; 1 uM, day 14, control (no drug) 34,000): 39,500 CPM per ml; Reverse Transcriptase activity in culture supernatant ([4]; 10 uM, day 7, control (no drug) 11,000): 500 CPM per ml; Reverse Transcriptase activity in culture supernatant ([4]; 10 uM, day 11, control (no drug) 38,000): 3,000 CPM per ml; Reverse Transcriptase activity in culture supernatant ([4]; 10 uM, day 14, control (no drug) 34,000): 4,500 CPM per ml"
Cc1cn([C@H]2C[C@H](N=[N+]=[N-])[C@@H](COP(=O)(OCCC#N)OC[C@@H]3CC[C@H](n4cnc5c(N)ncnc54)O3)O2)c(=O)[nH]c1=O (stereo partly shown) [AZT-P(CyE)-ddA],0.5,strongest protective effect,moderate toxicity,210,0.7,300,most potent,highest,"6,000 CPM per ml","43,000 CPM per ml","36,000 CPM per ml","1,000 CPM per ml","4,500 CPM per ml","12,000 CPM per ml",
"Cc1cn(C2CC(N=[N+]=[N-])C(COP(=O)(O)OCC3OC(n4cc(C)c(=O)[nH]c4=O)CC3N=[N+]=[N-])O2)c(=O)[nH]c1=O (stereo not shown) [AZT-P-AZT, reference compound]",,,highest toxicity,60,1.5,40,most potent,,,,,,,,
"O=c1[nH]cnc2c1ncn2[C@H]1CC[C@@H](CO)O1 [ddI, 2',3'-dideoxyinsine, reference compound]",,,least toxicity,450,,60,weaker activities,,,,,,,,"EC50 (HIV (TM) [3]; day 14, HIV-infected MT-2 cells, MOI 0.001, mean of triplicate cultures from two sets of experiments, linear regression, 20160 min): 7.5 µM"
"Cc1cn([C@H]2C[C@H](N=[N+]=[N-])[C@@H](COP(=O)(O)OC[C@@H]3CC[C@H](n4cnc5c(=O)[nH]cnc54)O3)O2)c(=O)[nH]c1=O [AZT-P-ddI, azido-β-thymidine-2',3'-dideoxyinosine phosphate ammonium salt]",,,moderate toxicity,240,1,240,most potent,highest,"1,000 CPM per ml","3,000 CPM per ml","10,000 CPM per ml","1,000 CPM per ml","1,500 CPM per ml","25,000 CPM per ml",duration of inhibition of the enzyme (RT) ([4]; 1 ug/ml): at least 11 days
